# In patent publication US7892833B2, “Using inhibitors of histone deacetylases for the suppression therapy of inherited disease predisposing conditions” (TopoTarget Germany AG, priority 2003, dated 2011):
# Entries after “also recorded” stand apart in the source; their conditions may differ.
# Tests used:
# TNF-α = TNF-α ELISA of PBL supernatants; type: cell-based, human; details: for TNF-α secretion, dose-response / concentration of maximal inhibition of TNF-α expression: PBLs, FIG. 6; for TNF-α secretion, dose-response: 2 h preincubation, CD3 and CD28 mAbs 24 h; for concentration of maximal inhibition of TNF-α expression: CD3/CD28
# Experimental: (§1) Monocyte and macrophage depleted peripheral blood mononuclear cells were obtained from consenting adults via separation using Ficoll-Hypaque. The peripheral blood mononuclear cells (PBMC) fraction was washed and seeded in 9 cm petri dishes. After an incubation of 2 hours at 37° C. to remove most of the monocytes, macrophages, and B-cells, the non-adherent cells were collected and cultured in 175cm^2 flasks for 2 days. Cells were harvested and adjusted to 3 million cells per ml. Aliquots of 500μl were transferred to each well of 24-well flat bottom plates. Peripheral blood lymphocytes (PBL's) were treated with various concentrations of HDAC inhibitors as indicated. After a 2 hour incubation time at 37°C cells were stimulated with phorbol 12-myristate 13-acetate (PMA) / ionomycin (Ion) or activated via T cell receptor (TCR/CD3) complex with 10μg/m1 anti-CD3 mAb (OKT3) and 2.5μg/ml anti-CD28 mAb. After 24 hours at 37° C. the supernatant was removed and frozen for cytokine assays. Cell pellets were lysed and total RNA was isolated using the RNeasy mini kit from Qiagen.
# (§2) To perform ELISA's, supernatants of treated and untreated PBL's were collected and IL-2 as well as TNF-α were measured using the Duo Set ELISA Development System (R&D Systems) as described by the manufacturer.
# [1] = system: Peripheral blood lymphocytes (PBL's); test: Cytokine mRNA by semiquantitative RT-PCR in PMA/Ion-stimulated PBLs; type: cell-based, human; details: for modulation of cytokine expression: PMA/Ion, FIGS. 4A and B; for IL-6 mRNA / PMA/Ion mediated stimulation of IL-4 mRNA: 2 h preincubation, PMA/Ion 24 h
# Experimental: as §1
# (§3) One microgram of total RNA was transcribed to cDNA by standard methods using reverse transcriptase and an oligo-dT primer (Invitrogen). For semiquantitative PCR, 2 μl of cDNA was amplified by PCR using specific primers. Primers for PCR were synthesized by MWG and are as follows: […]
# IL-2 = IL-2 ELISA of PBL supernatants; type: cell-based, human; details: for IL-2 secretion, dose-response / concentration of maximal inhibition of IL-2 expression: PBLs; for IL-2 secretion, dose-response: 2 h preincubation, CD3 and CD28 mAbs 24 h; for IL-2 secretion, dose-response / concentration of maximal inhibition of IL-2 expression / secretion of IL-2: FIG. 6; for concentration of maximal inhibition of IL-2 expression / secretion of IL-2: CD3/CD28
# Experimental: as §1, §2
# C57BL/6J-APC^min mice = test: APC^min mouse model, adenoma count after four weeks of treatment; type: in vivo
# Experimental: Ten to sixteen weeks old age- and sex-matched heterozygous C57BL/6J-APC^min mice (Jackson Laboratories, Bar Harbor, Me.) were either left untreated or were treated with 2-PPA or Celecoxib. Control animal were injected (i.p.) with PBS. 2-PPA was injected as isotonic aequous solution of the sodium salt (2×400 mg/kg/day) for four weeks, while Celecoxib was fed to the animals ad libidum at 1250 ppm (0, 12%) for four weeks. At necropsy entire intestinal tracts were opened longitudinally and fixed in 10% phosphate buffered formaldehyde for 24 h. Polyp contrast was increased performing a 1 min staining in 0.1% methylene blue prior to determination of polyp numbers and sizes under a dissecting microscope by two independent observers unaware of the treatment that the mice had received.
# [2] = system: acute promyelocytic leukemia; details: PML-RAR patient with multiple relapses after retinoic acid; Warrell et al., 1998; cited from earlier work
# [3] = system: stage III/IV non-small cell lung cancer; details: monotherapy; Keer et al., 2002; cited from earlier work
# PPARδ = details: cited from earlier work
# [4] = system: Human immortalized keratinocytes (HaCaT cells); test: Cytokine mRNA by semiquantitative RT-PCR in LPS-stimulated keratinocytes; type: cell-based; details: 4 h preincubation (200 nM TSA or 5 mM 2PPA), LPS 24 h; for level of IL-6 mRNA / level of TNF-α mRNA: vs. untreated stimulated control
# Experimental: Human immortalized keratinocytes (HaCaT cells) were seeded at a density of 2.5 million cells per ml into 75 cm^2 flasks. […] After 24 hours at 37° C. cells were lysed and total RNA was isolated using the RNeasy mini kit from Qiagen.
# as §3
# [5] = system: Acetylated histones H3 and H4 and the marker gene HDAC-2; test: Western blot of peripheral blood cells from patients treated with 2PPA (phase I/II); type: in vivo, human; details: 2PPA intravenously, before, 6 h, 24 h, 48 h
# Experimental: Whole cell extracts were prepared by lysis of cells in RIPA buffer including protease inhibitors. Lysates were separated by SDS gel electrophoresis and transferred onto PVDF membranes. Acetylated histones H3 and H4 and the marker gene HDAC-2 were detected by western blot analysis using an anti-acetylated H3 antibody (Upstate, #06-942), an anti-acetylated H4 antibody (clon T25; patent application EP 02.021984.6), and an anti-HDAC-2 antibody (SCBT, SC-7899). As an equal loading control PVDF membranes were stained with Coomassie (FIG. 9).
# [6] = system: cell lines with proven mutations of crucial genes; test: Cell viability assay (MTT test); type: cell-based; details: 0.5 to 3 mM, 40 h to 70 h, all the cell lines tested, vs. untreated cells
# Experimental: In FIG. 1 cell lines are listed with proven mutations of crucial genes which in an inherited way establish a condition that predisposes a person to develop a disorder. The cells were grown in the respective medium as described in FIG. 1.
# The cell lines listed in table 1 were seeded in 96 well plates at a density of 1×10^4 cells/well in normal growth medium. 2-propyl pentanoic acid was added at final concentrations between 0.5 and 3 mM to triplicate samples and the cells were incubated for 40 h to 70 h. Control cells were grown in the absence of 2-propyl pentanoic acid. Ten μl of 10 mg/ml 3-(4,5-dimethylthiazole-2-yl)-2,5 diphenyltetrazolium bromide (MTT) (Sigma, Deisenhofen, Germany) in PBS were added to each well and the cells were incubated for another 3 h. Cells were lysed by the addition of 90 μl of lysis buffer (20% SDS in 50% dimethyl formamide, pH 4.7). After solubilization of the formazan product, the absorption at 590 nm was determined in a microplate reader (Dynatech, Denkendorf, Germany) and the relative amount of viable cells in comparison to cells grown without the addition of 2-propyl pentanoic acid was determined.
# [7] = EP application No. 03014278.0; cited from earlier work
# Peripheral blood cells = test: Cytokine ELISA and RT-PCR in peripheral blood cells from a patient treated with 2PPA; type: in vivo, human
# Experimental: The cells were either left unstimulated or stimulated with CD3 and CD28 antibodies. After 24 hours at 37° C. the supernatant was collected and the secretion of IL-2 and TNF-α was quantified by ELISA (R&D Systems) (FIGS. 10A and B).
# Total RNA from unstimulated and CD3/CD28 stimulated cells was isolated using the RNeasy mini kit (Qiagen). One microgram of total RNA was converted to cDNA by standard methods using reverse transcriptase and an oligo-dT primer (Invitrogen). For semiquantitative PCR, 2 μl of cDNA were amplified by PCR using the specific primers as described above (FIG. 10C).
# [8] = 1 mM, other experiments, PMA/ION and CD3/CD28, FIG. 7
# [9] = starting at 24 hours of 2PPA treatment
compound,measurement,setting,value
O=C(/C=C/C1CCCCC1)NO [G2M-707],"TNF-α secretion, dose-response",TNF-α,dose-dependent inhibition
same,concentration of maximal inhibition of TNF-α expression,TNF-α,1 µM
same,modulation of cytokine expression,[1],can modulate cytokine expression
same,"IL-2 secretion, dose-response",IL-2,dose-dependent inhibition
same,concentration of maximal inhibition of IL-2 expression,IL-2,1 µM
O=C(CCC1CCCCC1)NO [G2M-702],"TNF-α secretion, dose-response",TNF-α,dose-dependent inhibition
same,concentration of maximal inhibition of TNF-α expression,TNF-α,3 µM
same,modulation of cytokine expression,[1],can modulate cytokine expression
same,"IL-2 secretion, dose-response",IL-2,dose-dependent inhibition
same,concentration of maximal inhibition of IL-2 expression,IL-2,3 µM
O=C(CCC1CCCC1)NO [G2M-701],"TNF-α secretion, dose-response",TNF-α,dose-dependent inhibition
same,concentration of maximal inhibition of TNF-α expression,TNF-α,6 µM
same,modulation of cytokine expression,[1],can modulate cytokine expression
same,"IL-2 secretion, dose-response",IL-2,dose-dependent inhibition
same,concentration of maximal inhibition of IL-2 expression,IL-2,6 µM
"O=C(CCCCCCC(=O)Nc1ccccc1)NO [SAHA, suberoylanilide hydroxamic acid]",modulation of cytokine expression,[1],can modulate cytokine expression
Cc1ccc(-c2cc(C(F)(F)F)nn2-c2ccc(S(N)(=O)=O)cc2)cc1 [Celecoxib],abnormalities in the gastrointestinal tract,"C57BL/6J-APC^min mice; APC^min mice after four weeks of treatment, FIG. 2B","intensely inflated stomach, small intestine, and colon"
phenylbutyrate,clinical outcome,[2],complete remission of the leukemia
"CCCC(=O)OCOC(=O)C(C)(C)C [Pivanex, Pivaloyloxymethyl butyrate]",clinical activity,[3],activity in stage III/IV non-small cell lung cancer
"CC(/C=C/C(=O)NO)=C\[C@@H](C)C(=O)c1ccc(N(C)C)cc1 [TSA, Trichostatin A]",activation of PPARδ,PPARδ,activates PPARδ
same,IL-6 mRNA,[1],only moderate effects
same,PMA/Ion mediated stimulation of IL-4 mRNA,[1],significantly reduced
same,mRNA transcript of IFN-γ,[4],virtually unaffected
same,level of IL-6 mRNA,[4],significant decrease
same,level of TNF-α mRNA,[4],significant decrease
"CCCC(CCC)C(=O)O [2PPA, 2-propyl-pentanoic acid]",TNF-α secretion,TNF-α; [8],significant decrease
same,"TNF-α secretion, dose-response",TNF-α,dose-dependent inhibition
same,IL-6 mRNA,[1],decreased IL-6 mRNA back to the level seen in the unstimulated sample
same,PMA/Ion mediated stimulation of IL-4 mRNA,[1],significantly reduced
same,number of colorectal adenomas,"C57BL/6J-APC^min mice; APC^min mice treated for 4 weeks, FIG. 2 legend",reduction in the number of colorectal adenomas
same,number of adenomas in the small intestine,"C57BL/6J-APC^min mice; four weeks, 2-PPA sodium salt i.p. 2×400 mg/kg/day, Celecoxib 1250 ppm in feed, FIG. 2A, 400 mg/kg/day",reduces adenoma formation; also recorded: clearly reduces the number of adenomas
same,abnormalities in the gastrointestinal tract,"C57BL/6J-APC^min mice; mouse, in vivo",did not show any abnormalities in the gastrointestinal tract
same,Histone H3 and H4 acetylation in peripheral blood cells,[5],Histone H3 and H4 hyperacetylation
same,marker protein HDAC-2 in peripheral blood cells,[5],down-regulation of the marker protein HDAC-2
same,secretion of IL-2,IL-2; 0.5 mM,only moderate effect
same,secretion of IL-2,IL-2; 1 mM,only moderate effect
same,IL-2 secretion,IL-2; [8],significant decrease
same,secretion of IL-2,IL-2; 5 mM,significantly reduced
same,"IL-2 secretion, dose-response",IL-2,dose-dependent inhibition
same,inhibition of cell viability,[6],20-80%
same,skin permeation,[7],permeates human skin effectively
same,IL-2 mRNA transcripts,Peripheral blood cells; CD3/CD28 stimulated,decrease
same,TNF-α mRNA transcripts,Peripheral blood cells; CD3/CD28 stimulated,decrease
same,IL-2 in the culture supernatant (ELISA),Peripheral blood cells; CD3/CD28 stimulated 24 h,modulates the expression
same,TNF-α in the culture supernatant (ELISA),Peripheral blood cells; CD3/CD28 stimulated 24 h,modulates the expression
same,cytokine mRNA expression of IFN-γ,Peripheral blood cells; [9],significantly reduced
same,cytokine mRNA expression of IL-4,Peripheral blood cells; [9],significantly reduced
same,mRNA transcript of IFN-γ,[4],significantly reduced
same,level of IL-6 mRNA,[4],significant decrease
same,level of TNF-α mRNA,[4],significant decrease
